Assay [1] deals with T1, hEP2 (Homo sapiens, UniProt P43116). Briefly: Competition binding, [3H]PGE2, human EP2 receptors. Also noted: expressed in transfected cells; host or cells: HEK 293. The conditions noted are these: [3H]PGE2, HEK 293 cells stably expressing human EP2; read-out: hEP2 Ki. As to the method: Competition binding experiments were performed in a medium containing Hank's balanced salt solution, Hepes 20 mM, pH 7.3, membranes (˜60 μg protein) or 2×10^5 cells from HEK 293 cells stably expressing human EP2 receptors, [^3H]PGE2 (10 nM) and various concentrations of test compounds in a total volume of 300 μl. Reaction mixtures were incubated at 23° C. for 60 min, and were filtered over Whatman GF/B filters under vacuum. Filters were washed three times with 5 ml ice-cold buffer containing 50 mM Tris/HCl (pH 7.3). Non-specific binding was estimated in the presence of excess unlabeled PGE2 (10 μM). Binding data fitted to the binding model for a single class of binding sites, using nonlinear regression analysis. IC50 values thus obtained were converted to Ki using the equation of Ki=(IC50/(1+[L]/KD) where [L] represents PGE2 concentration (10 nM) and KD the dissociation constant for [^3H]PGE2 at human EP2 receptors (40 nM).
(§1) HEK-293 cells stably expressing the human or feline FP receptor, or EP1, EP2, or EP4 receptors were washed with TME buffer, scraped from the bottom of the flasks, and homogenized for 30 sec using a Brinkman PT 10/35 polytron. TME buffer was added to achieve a final 40 ml volume in the centrifuge tubes (the composition of TME is 100 mM TRIS base, 20 mM MgCl2, […]; 10N HCl is added to achieve a pH of 7.4).
(§2) The cell homogenate was centrifuged at 19000 r.p.m. for 20 min at 4° C. using a Beckman Ti-60 rotor. The resultant pellet was resuspended in TME buffer to give a final 1 mg/ml protein concentration, as determined by Biorad assay. Radioligand binding competition assays vs. [3H-] 17-phenyl PGF2, (5 nM) were performed in a 100 μl volume for 60 min. Binding reactions were started by adding plasma membrane fraction. The reaction was terminated by the addition of 4 ml ice-cold TRIS-HCl buffer and rapid filtration through glass fiber GF/B filters using a Brandel cell harvester. The filters were washed 3 times with ice-cold buffer and oven dried for one hour.
(§3) [^3H-] PGE2 (specific activity 180 Ci mmol) was used as the radioligand for EP receptors. [^3H] 17-phenyl PGF2, was employed for FP receptor binding studies. Binding studies employing EP1, EP2, EP4 and FP receptors were performed in duplicate in at least three separate experiments. A […] assay volume was used. Incubations were for 60 min at 25° C. and were terminated by the addition of 4 ml of ice-cold 50 mM TRIS-HCl, followed by rapid filtration through Whatman GF/B filters and three additional 4 ml washes in a cell harvester (Brandel). Competition studies were performed using a final concentration of 5 nM [^3H]-PGE2, or 5 nM [^3H] 17-phenyl PGF2, and non-specific binding determined with 10^−5M of unlabeled PGE2, or 17-phenyl PGF2α, according to receptor subtype studied.

A further assay addresses hEP4 (Homo sapiens, UniProt P35408). Briefly: Radioligand binding, EP4 receptor. Also noted: expressed in transfected cells; host or cells: HEK-293. The conditions noted are these: [3H]PGE2, HEK-293 cells expressing EP4. As to the method: as §1, §2, §3
In assay [2] the target is T1, hEP2. Briefly: FLIPR calcium signal, hEP2. It counts as cell-based. Also noted: expressed in transfected cells; host or cells: HEK-293(EBNA). The settings on record: HEK-293(EBNA) cells expressing hEP2/Gqs5. How it is done:
Methods for FLIPR™ Studies
HEK-293(EBNA) cells, stably expressing one type or subtype of recombinant human prostaglandin receptors (prostaglandin receptors expressed: hDP/Gqs5; hEP1; hEP2/Gqs5; hEP3A/Gqi5; hEP4/Gqs5; hFP; hIP; hTP), were cultured in 100 mm culture dishes in high-glucose DMEM medium containing 10% fetal bovine serum, 2 mM 1-glutamine, 250 μg/ml geneticin (G418) and 200 μg/ml hygromycin B as selection markers, and 100 units/ml penicillin G, 100 μg/ml streptomycin and 0.25 μg/ml amphotericin B.
Cells were seeded at a density of 5×10^4 cells per well in Biocoat® Poly-D-lysine-coated black-wall, clear-bottom 96-well plates (Becton-Dickinson) and allowed to attach overnight in an incubator at 37° C. Cells were then washed two times with HBSS-HEPES buffer (Hanks Balanced Salt Solution without bicarbonate and phenol red, 20 mM HEPES, pH 7.4) using a Denley Cellwash plate washer (Labsystems). After 45 minutes of dye-loading in the dark, using the calcium-sensitive dye Fluo-4 AM at a final concentration of 2 μM, plates were washed four times with HBSS-HEPES buffer to remove excess dye leaving 100 μl in each well. Plates were re-equilibrated to 37° C. for a few minutes.
Cells were excited with an Argon laser at 488 nm, and emission was measured through a 510-570 nm bandwidth emission filter (FLIPR™, Molecular Devices, Sunnyvale, Calif.). Drug solution was added in a 50 μl volume to each well to give the desired final concentration. The peak increase in fluorescence intensity was recorded for each well. On each plate, four wells each served as negative (HBSS-HEPES buffer) and positive controls (standard agonists: BW245C (hDP); PGE2 (hEP1; hEP2/Gqs5; hEP3A/Gqi5; hEP4/Gqs5); PGF2α (hFP); carbacyclin (hIP); U-46619 (hTP), depending on receptor). The peak fluorescence change in each drug-containing well was then expressed relative to the controls.
Compounds were tested in a high-throughput (HTS) or concentration-response (CoRe) format. In the HTS format, forty-four compounds per plate were examined in duplicates at a concentration of 10^−5 M. To generate concentration-response curves, four compounds per plate were tested in duplicates in a concentration range between 10^−5 and 10^−11 M. The duplicate values were averaged. In either, HTS or CoRe format each compound was tested on at least 3 separate plates using cells from different passages to give an n≧3.

For assay [3], the target named is T1, hEP2. Briefly: cAMP assay, hEP2. It is filed as cell-based. On the technique in general: Cyclic AMP is a second messenger, typically raised through Gs and lowered through Gi signalling.

Sequence of hEP4 (P35408 whole entry): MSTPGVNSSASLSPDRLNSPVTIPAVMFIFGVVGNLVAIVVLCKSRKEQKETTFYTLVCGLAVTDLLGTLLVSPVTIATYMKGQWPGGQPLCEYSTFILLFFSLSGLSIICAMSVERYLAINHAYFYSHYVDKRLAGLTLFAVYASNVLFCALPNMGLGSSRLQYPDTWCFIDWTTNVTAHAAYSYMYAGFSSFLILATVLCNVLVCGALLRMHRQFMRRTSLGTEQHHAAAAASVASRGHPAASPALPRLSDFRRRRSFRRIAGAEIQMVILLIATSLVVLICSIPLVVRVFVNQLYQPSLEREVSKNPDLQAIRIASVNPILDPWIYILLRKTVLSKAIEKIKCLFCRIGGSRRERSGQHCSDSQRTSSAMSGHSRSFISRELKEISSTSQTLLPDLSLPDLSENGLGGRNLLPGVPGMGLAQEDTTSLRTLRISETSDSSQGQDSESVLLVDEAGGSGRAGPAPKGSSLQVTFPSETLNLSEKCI
T1 sequence (P43116 whole entry): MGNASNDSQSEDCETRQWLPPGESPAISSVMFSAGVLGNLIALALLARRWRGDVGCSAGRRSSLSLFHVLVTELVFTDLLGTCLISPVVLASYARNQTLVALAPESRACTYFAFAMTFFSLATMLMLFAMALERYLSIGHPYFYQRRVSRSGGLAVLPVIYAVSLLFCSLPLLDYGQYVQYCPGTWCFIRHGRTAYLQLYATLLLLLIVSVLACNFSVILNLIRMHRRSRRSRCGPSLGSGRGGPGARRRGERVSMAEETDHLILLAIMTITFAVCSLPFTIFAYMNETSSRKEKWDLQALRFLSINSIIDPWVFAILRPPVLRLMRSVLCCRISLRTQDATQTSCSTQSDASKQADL

For the compound `CC(C)(c1ccccc1)c1ccc(OC[C@@H]2[C@@H](C/C=C\CCCC(=O)O)[C@H](Cl)C[C@H]2O)cc1` [Example 31, (Z)-7-{(1R,2S,3R,5R)-5-Chloro-3-hydroxy-2-[4-(1-methyl-1-phenyl-ethyl)-phenoxymethyl]-cyclopentyl}-hept-5-enoic acid], the figures for the inhibition constant Ki on hEP2 [1] and at hEP4 were above 10000 nM and 1740 nM, respectively. In addition, on hEP2 [2], the EC50 (as a rule, the concentration at which the effect is half-maximal) was above 10000 nM.
Take `O=Cc1ccc(OC[C@@H]2[C@@H](C/C=C\CCCC(=O)O)[C@H](Cl)C[C@H]2O)cc1` [Example 42, (Z)-7-[(1R,2S,3R,5R)-5-Chloro-2-(4-formyl-phenoxymethyl)-3-hydroxy-cyclopentyl]-hept-5-enoic acid]: the EC50 was 18 nM at hEP2 [3] and above 10000 nM at hEP2 [2]. Also, the values for the Ki on hEP2 [1] and at hEP4 were 1500 nM and above 10000 nM, respectively.
For the compound `CCCC(O)c1ccc(OC[C@@H]2[C@@H](C/C=C\CCCC(=O)O)[C@H](Cl)C[C@H]2O)cc1` (stereo partly drawn) [Example 44, (Z)-7-{(1R,2S,3R,5R)-5-Chloro-3-hydroxy-2-[4-(1-hydroxy-butyl)-phenoxymethyl]-cyclopentyl}-hept-5-enoic acid], the EC50 at hEP2 [3] was determined as 66 nM; at hEP2 [2] it was 1100 nM. Moreover, the inhibition constant Ki (commonly a dissociation constant, usually derived from enzyme kinetics or from competition with a known ligand) on hEP2 [1] was 2730 nM; at hEP4, above 10000 nM.
`CCCC(OC)c1ccc(OC[C@@H]2[C@@H](C/C=C\CCCC(=O)O)[C@H](Cl)C[C@H]2O)cc1` (stereo partly drawn) [Example 45, (Z)-7-{(1R,2S,3R,5R)-5-Chloro-3-hydroxy-2-[4-(1-methoxy-butyl)-phenoxymethyl]-cyclopentyl}-hept-5-enoic acid]: the results for the EC50 at hEP2 [3] and on hEP2 [2] were 47 nM and 661 nM, respectively. In addition, the Ki was found to be 904 nM on hEP2 [1] and 5280 nM on hEP4.
In the case of `CCCCCC(O)c1ccc(OC[C@@H]2[C@@H](C/C=C\CCCC(=O)O)[C@H](Cl)C[C@H]2O)cc1` (stereo partly drawn) [Example 46, (Z)-7-{(1R,2S,3R,5R)-5-Chloro-3-hydroxy-2-[4-(1-hydroxy-hexyl)-phenoxymethyl]-cyclopentyl}-hept-5-enoic acid], the EC50 on hEP2 [3] was 119 nM; on hEP2 [2], 531 nM. Besides, the Ki came out at 2350 nM at hEP2 [1] and 2650 nM on hEP4.
In the case of `CC(O)c1ccc(OC[C@@H]2[C@@H](C/C=C\CCCC(=O)O)[C@H](Cl)C[C@H]2O)cc1` (stereo partly drawn) [Example 47, (Z)-7-{(1R,2S,3R,5R)-5-Chloro-3-hydroxy-2-[4-(1-hydroxy-ethyl)-phenoxymethyl]-cyclopentyl}-hept-5-enoic acid], the values for the EC50 at hEP2 [3] and at hEP2 [2] were 124 nM and 1940 nM, respectively. For the same compound, the Ki on hEP2 [1] is 5290 nM; on hEP4 it was above 10000 nM.
In the case of `O=C(O)CCC/C=C\C[C@@H]1[C@@H](COc2cccc(CO)c2)[C@H](O)C[C@H]1Cl` [Example 49, (Z)-7-[(1R,2S,3R,5R)-5-Chloro-3-hydroxy-2-(3-hydroxymethyl-phenoxymethyl)-cyclopentyl]-hept-5-enoic acid], the figures for the EC50 at hEP2 [3] and on hEP2 [2] were 14 nM and 374 nM, respectively. The Ki on hEP2 [1] was 207 nM; on hEP4 it was above 10000 nM.
For the compound `CCCCCC(O)c1cccc(OC[C@@H]2[C@@H](C/C=C\CCCC(=O)O)[C@H](Cl)C[C@H]2O)c1` (stereo partly drawn) [Example 50, (Z)-7-{(1R,2S,3R,5R)-5-Chloro-3-hydroxy-2-[3-(1-hydroxy-hexyl)-phenoxymethyl]-cyclopentyl}-hept-5-enoic acid], the EC50 at hEP2 [3] stood at 68 nM; at hEP2 [2] it was 463 nM. The inhibitory constant (Ki) at hEP2 [1] was determined as 826 nM; on hEP4, 1130 nM.
Regarding `CC(C)C(O)c1cccc(OC[C@@H]2[C@@H](C/C=C\CCCC(=O)O)[C@H](Cl)C[C@H]2O)c1` (stereo partly drawn) [Example 51, (Z)-7-{(1R,2S,3R,5R)-5-Chloro-3-hydroxy-2-[3-(1-hydroxy-2-methyl-propyl)-phenoxymethyl]-cyclopentyl}-hept-5-enoic acid], the EC50 is 39 nM at hEP2 [3] and 196 nM on hEP2 [2]. Moreover, the Ki at hEP2 [1] is 772 nM; at hEP4 it was above 10000 nM.
For the compound `O=C(O)CCC/C=C\C[C@@H]1[C@@H](COc2cccc(C(O)Cc3ccccc3)c2)[C@H](O)C[C@H]1Cl` (stereo partly drawn) [Example 53, (Z)-7-{(1R,2S,3R,5R)-5-Chloro-3-hydroxy-2-[3-(1-hydroxy-2-phenyl-ethyl)-phenoxymethyl]-cyclopentyl}-hept-5-enoic acid], the EC50 worked out at 496 nM on hEP2 [3] and 1730 nM at hEP2 [2]. Besides, the Ki at hEP2 [1] is 1750 nM; on hEP4, 1850 nM.
For `CC(O)c1cccc(OC[C@@H]2[C@@H](C/C=C\CCCC(=O)O)[C@H](Cl)C[C@H]2O)c1` (stereo partly drawn) [Example 54, (Z)-7-{(1R,2S,3R,5R)-5-Chloro-3-hydroxy-2-[3-(1-hydroxy-ethyl)-phenoxymethyl]-cyclopentyl}-hept-5-enoic acid] the same measures were 40 nM, 121 nM, 701 nM and above 10000 nM.
Take `Cc1cc(OC[C@@H]2[C@@H](C/C=C\CCCC(=O)O)[C@H](Cl)C[C@H]2O)cc(C)c1CO` [Example 56, (Z)-7-[(1R,2S,3R,5R)-5-Chloro-3-hydroxy-2-(4-hydroxymethyl-3,5-dimethyl-phenoxymethyl)-cyclopentyl]-hept-5-enoic acid]: the EC50 was found to be 1.8 nM at hEP2 [3] and 27 nM on hEP2 [2]. The Ki at hEP2 [1] was found to be 64 nM; at hEP4, 2200 nM.
As for `COCc1c(C)cc(OC[C@@H]2[C@@H](C/C=C\CCCC(=O)O)[C@H](Cl)C[C@H]2O)cc1C` [Example 57, (Z)-7-[(1R,2S,3R,5R)-5-Chloro-3-hydroxy-2-(4-methoxymethyl-3,5-dimethyl-phenoxymethyl)-cyclopentyl]-hept-5-enoic acid], the EC50 at hEP2 [3] is 23 nM; at hEP2 [2], 142 nM. For the same compound, the Ki at hEP2 [1] is 195 nM; on hEP4 it was 1660 nM.

These data come from patent publication US7405240B2, “Substituted cyclopentanes or cyclopentanones as therapeutic agents” (Allergan, Inc., priority 2006, dated 2008).
